Values after ≈ are worked out from the molar mass of the structure shown.

One test concerns Candida albicans. Description: Antifungal activity against Candida albicans SC5314 assessed as inhibition of fungal growth incubated for 24 hrs by CLSI protocol based broth microdilution method. Type of test: functional. On the technique in general: Dilution methods test growth across graded concentrations, often in twofold steps.
As a reminder, the MIC80 is the lowest concentration that inhibits either 80% of growth or 80% of the strains tested, depending on the study. On to `Cc1c(-n2c(-c3ccc(Cl)cc3)cs/c2=N\c2ccc(Br)cc2)c(=O)n(-c2ccccc2)n1C`, for which the MIC80 was over 128 µg/mL.

`Cc1c(-n2c(-c3cccc([N+](=O)[O-])c3)cs/c2=N\c2ccc(Br)cc2)c(=O)n(-c2ccccc2)n1C`: the MIC80 is over 128 µg/mL.

`Cc1c(-n2c(-c3ccc4ccccc4c3)cs/c2=N\c2cccnc2)c(=O)n(-c2ccccc2)n1C`: the MIC80 was over 128 µg/mL.

Turning to `Cc1c(-n2c(-c3ccc(F)cc3)cs/c2=N\c2ccccc2)c(=O)n(-c2ccccc2)n1C`, the MIC80 is over 128 µg/mL.

Consider `Cc1c(-n2c(-c3ccncc3)cs/c2=N\c2ccccc2)c(=O)n(-c2ccccc2)n1C`, for which the MIC80 is over 128 µg/mL.

Consider `COc1ccc(/N=c2\scc(-c3ccc4ccccc4c3)n2-c2c(C)n(C)n(-c3ccccc3)c2=O)cc1`, for which the MIC80 is over 128 µg/mL.

`Cc1c(-n2c(-c3ccc(O)c(C=O)c3)cs/c2=N\c2ccccc2)c(=O)n(-c2ccccc2)n1C`: the MIC80 was over 128 µg/mL.

As for `COc1cccc(-c2cs/c(=N\c3ccccc3)n2-c2c(C)n(C)n(-c3ccccc3)c2=O)c1`, the MIC80 was over 128 µg/mL.

As for `Cc1c(-n2c(-c3cccc(N)c3)cs/c2=N\c2ccccc2)c(=O)n(-c2ccccc2)n1C`, the MIC80 is over 128 µg/mL.

In the case of `Cc1c(-n2c(-c3ccccn3)cs/c2=N\c2ccccc2)c(=O)n(-c2ccccc2)n1C`, the MIC80 is over 128 µg/mL.

As to `Cc1c(-n2c(-c3ccc(OC(F)(F)F)cc3)cs/c2=N\c2ccccc2)c(=O)n(-c2ccccc2)n1C`, the MIC80 is over 128 µg/mL.

In the case of `Cc1c(-[n+]2c(-c3ccc(Br)cc3)csc2N(C)c2ccccc2)c(=O)n(-c2ccccc2)n1C.[I-]`, the MIC80 is over 128 µg/mL.

As for `Cc1c(-n2c(-c3ccccc3Cl)cs/c2=N\c2ccccc2)c(=O)n(-c2ccccc2)n1C`, the MIC80 is over 128 µg/mL.

`Cc1c(-n2c(-c3cc4ccccc4o3)cs/c2=N\c2ccccc2)c(=O)n(-c2ccccc2)n1C`: the MIC80 was over 128 µg/mL.

For `Cc1c(-n2c(-c3ccc(Cl)cc3Cl)cs/c2=N\c2ccc(Br)cc2)c(=O)n(-c2ccccc2)n1C`, the MIC80 was over 128 µg/mL.

Regarding `Cc1c(-n2c(-c3ccc(C#N)cc3)cs/c2=N\c2ccc(Br)cc2)c(=O)n(-c2ccccc2)n1C`, the MIC80 is over 128 µg/mL.

Regarding `Cc1c(-n2c(-c3cccnc3)cs/c2=N\c2ccccc2)c(=O)n(-c2ccccc2)n1C`, the MIC80 is over 128 µg/mL.

Turning to `Cc1c(-n2c(-c3ccccn3)cs/c2=N\c2ccc(Br)cc2)c(=O)n(-c2ccccc2)n1C`, the MIC80 is over 128 µg/mL.

In the case of `Cc1c(-n2c(-c3ccc4ccccc4c3)cs/c2=N\c2cccc(OCc3ccccc3)c2)c(=O)n(-c2ccccc2)n1C`, the MIC80 is over 128 µg/mL.

`Cc1ccc(-c2cs/c(=N\c3ccccc3)n2-c2c(C)n(C)n(-c3ccccc3)c2=O)cc1`: the MIC80 is over 128 µg/mL.

For `Cc1c(-n2c(-c3ccc(Cl)cc3Cl)cs/c2=N\c2ccccc2)c(=O)n(-c2ccccc2)n1C`, the MIC80 is over 128 µg/mL.

`Cc1c(-n2c(-c3ccc(S(C)(=O)=O)cc3)cs/c2=N\c2ccccc2)c(=O)n(-c2ccccc2)n1C`: the MIC80 is over 128 µg/mL.

Consider `Cc1c(-n2c(-c3ccc(O)cc3)cs/c2=N\c2ccccc2)c(=O)n(-c2ccccc2)n1C`, for which the MIC80 was over 128 µg/mL.

On to `COc1ccc(/N=c2\scc(-c3ccc(Br)cc3)n2-c2c(C)n(C)n(-c3ccccc3)c2=O)cc1`, for which the MIC80 is over 128 µg/mL.

As for `Cc1c(-n2c(-c3ccc(C#N)cc3)cs/c2=N\c2ccccc2)c(=O)n(-c2ccccc2)n1C`, the MIC80 is over 128 µg/mL.

As for `Cc1c(-n2c(-c3cccc(Cl)c3)cs/c2=N\c2ccccc2)c(=O)n(-c2ccccc2)n1C`, the MIC80 was over 128 µg/mL.

On to `CC(=O)c1cs/c(=N\c2ccccc2)n1-c1c(C)n(C)n(-c2ccccc2)c1=O`, for which the MIC80 was over 128 µg/mL.

For the compound `Cc1c(-n2c(-c3cccnc3)cs/c2=N\c2ccc(Br)cc2)c(=O)n(-c2ccccc2)n1C`, the MIC80 was over 128 µg/mL.

The subject of another test is Candida albicans. Description: Antifungal activity against Candida albicans SC5314 assessed as inhibition of hyphae growth incubated for 24 hrs by CLSI protocol based broth microdilution method. The class given is functional.
What is called MIC50 is the lowest concentration that inhibits either 50% of growth or 50% of the strains tested, depending on the study. With `Cc1c(-n2c(-c3ccc(Cl)cc3)cs/c2=N\c2ccc(Br)cc2)c(=O)n(-c2ccccc2)n1C`, the MIC50 turned out to be 8 µg/mL (≈ 14.5 µM).

Regarding `Cc1c(-n2c(-c3cccc([N+](=O)[O-])c3)cs/c2=N\c2ccc(Br)cc2)c(=O)n(-c2ccccc2)n1C`, the MIC50 is over 128 µg/mL.

On to `Cc1c(-n2c(-c3ccc4ccccc4c3)cs/c2=N\c2cccnc2)c(=O)n(-c2ccccc2)n1C`, for which the MIC50 was 32 µg/mL (≈ 65.4 µM).

Turning to `Cc1c(-n2c(-c3ccc(F)cc3)cs/c2=N\c2ccccc2)c(=O)n(-c2ccccc2)n1C`, the MIC50 was over 128 µg/mL.

Consider `Cc1c(-n2c(-c3ccncc3)cs/c2=N\c2ccccc2)c(=O)n(-c2ccccc2)n1C`, for which the MIC50 was over 128 µg/mL.

For the compound `COc1ccc(/N=c2\scc(-c3ccc4ccccc4c3)n2-c2c(C)n(C)n(-c3ccccc3)c2=O)cc1`, the MIC50 came out at 4 µg/mL (≈ 7.71 µM).

Consider `Cc1c(-n2c(-c3ccc(O)c(C=O)c3)cs/c2=N\c2ccccc2)c(=O)n(-c2ccccc2)n1C`, for which the MIC50 is over 128 µg/mL.

`COc1cccc(-c2cs/c(=N\c3ccccc3)n2-c2c(C)n(C)n(-c3ccccc3)c2=O)c1`: the MIC50 was over 128 µg/mL.

For the compound `Cc1c(-n2c(-c3cccc(N)c3)cs/c2=N\c2ccccc2)c(=O)n(-c2ccccc2)n1C`, the MIC50 is over 128 µg/mL.

Consider `Cc1c(-n2c(-c3ccccn3)cs/c2=N\c2ccccc2)c(=O)n(-c2ccccc2)n1C`, for which the MIC50 is over 128 µg/mL.

`Cc1c(-n2c(-c3ccc(OC(F)(F)F)cc3)cs/c2=N\c2ccccc2)c(=O)n(-c2ccccc2)n1C`: the MIC50 came out at 8 µg/mL (≈ 15.3 µM).

In the case of `Cc1c(-[n+]2c(-c3ccc(Br)cc3)csc2N(C)c2ccccc2)c(=O)n(-c2ccccc2)n1C.[I-]`, the MIC50 is over 128 µg/mL.

For `Cc1c(-n2c(-c3ccccc3Cl)cs/c2=N\c2ccccc2)c(=O)n(-c2ccccc2)n1C`, the MIC50 is over 128 µg/mL.

Take `Cc1c(-n2c(-c3cc4ccccc4o3)cs/c2=N\c2ccccc2)c(=O)n(-c2ccccc2)n1C`: the MIC50 turned out to be 2 µg/mL (≈ 4.18 µM).

`Cc1c(-n2c(-c3ccc(Cl)cc3Cl)cs/c2=N\c2ccc(Br)cc2)c(=O)n(-c2ccccc2)n1C`: the MIC50 was over 128 µg/mL.

With `Cc1c(-n2c(-c3ccc(C#N)cc3)cs/c2=N\c2ccc(Br)cc2)c(=O)n(-c2ccccc2)n1C`, the MIC50 is over 128 µg/mL.

`Cc1c(-n2c(-c3cccnc3)cs/c2=N\c2ccccc2)c(=O)n(-c2ccccc2)n1C`: the MIC50 was over 128 µg/mL.

On to `Cc1c(-n2c(-c3ccccn3)cs/c2=N\c2ccc(Br)cc2)c(=O)n(-c2ccccc2)n1C`, for which the MIC50 was over 128 µg/mL.

Take `Cc1c(-n2c(-c3ccc4ccccc4c3)cs/c2=N\c2cccc(OCc3ccccc3)c2)c(=O)n(-c2ccccc2)n1C`: the MIC50 was over 128 µg/mL.

In the case of `Cc1ccc(-c2cs/c(=N\c3ccccc3)n2-c2c(C)n(C)n(-c3ccccc3)c2=O)cc1`, the MIC50 was 4 µg/mL (≈ 8.84 µM).

`Cc1c(-n2c(-c3ccc(Cl)cc3Cl)cs/c2=N\c2ccccc2)c(=O)n(-c2ccccc2)n1C`: the MIC50 was over 128 µg/mL.

On to `Cc1c(-n2c(-c3ccc(S(C)(=O)=O)cc3)cs/c2=N\c2ccccc2)c(=O)n(-c2ccccc2)n1C`, for which the MIC50 is over 128 µg/mL.

Regarding `Cc1c(-n2c(-c3ccc(O)cc3)cs/c2=N\c2ccccc2)c(=O)n(-c2ccccc2)n1C`, the MIC50 is over 128 µg/mL.

Regarding `COc1ccc(/N=c2\scc(-c3ccc(Br)cc3)n2-c2c(C)n(C)n(-c3ccccc3)c2=O)cc1`, the MIC50 worked out at 16 µg/mL (≈ 29.2 µM).

For the compound `Cc1c(-n2c(-c3ccc(C#N)cc3)cs/c2=N\c2ccccc2)c(=O)n(-c2ccccc2)n1C`, the MIC50 is over 128 µg/mL.

In the case of `Cc1c(-n2c(-c3cccc(Cl)c3)cs/c2=N\c2ccccc2)c(=O)n(-c2ccccc2)n1C`, the MIC50 is over 128 µg/mL.

For `CC(=O)c1cs/c(=N\c2ccccc2)n1-c1c(C)n(C)n(-c2ccccc2)c1=O`, the MIC50 was over 128 µg/mL.

On to `Cc1c(-n2c(-c3cccnc3)cs/c2=N\c2ccc(Br)cc2)c(=O)n(-c2ccccc2)n1C`, for which the MIC50 is over 128 µg/mL.
